{"source": "patent US20030134869A1", "about": "“Novel therapeutic use of nicergoline” (priority 1998, published 2003)", "key": {"[1]": {"test_system": "motor neurons in motor neuron-enriched cultures", "assay": "Neuronal death in motor neuron-enriched cultures in the absence of trophic factor", "type": "cell-based", "settings": "p<0.05", "experimental": "The effect of nicergoline has therefore been determined in a degeneration model which is induced by depriving cultured motor neurons of neurotrophic factor.\n(§1) The motor neuron-enriched cultures are prepared using the centrifugation method which was described by R. L. SCHNAAR and A. E. SCHAFFNER, J. Neurosci., 1, 204-217 (1981) and modified by W. CAMU and C. E. HENDERSON, J. Neurosci. Methods, 44, 59-70 (1992). The motor neurons are spread, at a density of 2500 cells per plate, on 35 mm culture plates which have previously been coated with laminin/ornithine in accordance with the method of A. G. ESTEVEZ et al., J. Neurosci., 18 (3), 923-931 (1998). The cultures are then maintained in L15 medium (GIBCO BRL) containing sodium bicarbonate (22 mM), conalbumin (0.1 mg/ml), putrescine (0.1 mM), insulin (5 μg/ml), sodium selenite ([…]), glucose (20 mM), progesterone (21 nM), penicillin (100 IU/ml) and streptomycin (100 μg/ml).\nMore than 70% of the cells are immunoreactive for the neurotrophin p75 receptor and the Islet ½ markers for spinal motor neurons. […]\nThe number of motor neurons is estimated by counting the labeled cells in an area of 0.4-1 cm^2 under a microscope which enlarges 200 times. In all cases, the values are expressed as a percentage of the number of motor neurons which are present in cultures maintained using trophic factors. […]"}, "[2]": {"test_system": "motor neurons in astrocyte/motor neuron co-cultures", "assay": "Survival of motor neurons in astrocyte/motor neuron co-cultures", "type": "cell-based, rats", "settings": "for % OF LABELED MOTOR NEURONS: vehicle alone = 100 ± 9.4", "experimental": "as §1\nThe astrocytes are obtained from young, one-day-old rats using the slightly modified method of R. P. SANETO and J. DE VELLIS as described in Neurochemistry a practical approach (A. J. TURNER and H. S. St JOHN) IRL Press, Oxford-Washington D.C., pp. 27-63. The spinal cords are dissected out under sterile conditions and freed of meninges and dorsal ganglia. Five to ten spinal cords are transferred into PBS (phosphate buffer saline) and cut before being incubated at 37° C. for 25 minutes in PBS to which 0.25% trypsin has been added. The enzymatic treatment is stopped by adding 10 ml of Dulbecco's modified Eagle medium (DMEM), to which 10% fetal calf serum (FCS) has been added, and the cells are collected by centrifugation. Another step of mechanical dissociation is performed using the end of a 1 ml pipette. The cells are spread, at a density of 1.5-2×10^6 cells per 25 cm^2 of culture medium, in DMEM containing 10% FCS. After 2 days in vitro, the cultures are fed every day. When a visible monolayer of cells has been completed, the cultures are stirred at 250 rpm for 48 hours and, on the following day, the monolayers are treated with cytosine arabinoside (10^−5 M) for 48 hours. The astrocyte monolayers are then amplified to a density of five on 35 mm culture plates for initially 25 cm^2 culture flasks.\nThe spinal astrocyte cultures consist, to an extent of more than 98%, of flat, polygonal cells which are immunoreactive for the glial fibrillar acid protein (GFAP). The monolayers are exposed to the product to be tested and then incubated with the motor neuron medium in order to obtain a conditioned culture medium. This medium is transferred and tested at different dilutions in order to determine its effects on neuronal survival.\nThe cells are fixed in 4% paraformaldehyde and 0.1% glutaraldehyde in PBS (pH 7.4 and at 4° C. for 15 minutes) and in a cold methanolic solution. […]"}}}
{"smiles": "CO[C@]12C[C@@H](COC(=O)c3cncc(Br)c3)CN(C)[C@@H]1Cc1cn(C)c3cccc2c13", "note": "[Nicergoline, (8β)-10-methoxy-1,6-dimethylergoline-8-methanol-5-bromonicotinate]", "values": [{"measurement": "increase of the survival of the motor neurons", "setting": "[1]", "value": 13, "unit": "%"}, {"measurement": "% OF LABELED MOTOR NEURONS", "setting": "[2]; nicergoline 0.1 μM", "value": "115.7 ± 16", "unit": "%"}, {"measurement": "% OF LABELED MOTOR NEURONS", "setting": "[2]; nicergoline 1 μM, p < 0.05 vs vehicle", "value": "145.5 ± 24", "unit": "%"}, {"measurement": "increase of the survival of motor neurons as compared with cocultures treated with the vehicle alone", "setting": "[2]; nicergoline 10 μM", "value": 63.7, "unit": "%"}, {"measurement": "% OF LABELED MOTOR NEURONS", "setting": "[2]; nicergoline 10 μM, p < 0.01 vs vehicle", "value": "163.7 ± 22.5", "unit": "%"}]}
